Data on 2 molecules can be found in US6455558B1, “Biocide composition and use” (Avecia Limited, priority 1998, dated 2002).

Several values for one entry are separate records, joined by “and”; a condition that tells them apart may be missing. Identical values can stand only once.

In this test the test system is mixed inoculum of Aureobasidium pullulans, Fusarium solani, Penicillium funicularum, Scopulariopsis brevicaulis and Streptoverticillium waksmanii. As to the kind of experiment: Soil burial test of plasticised PVC strips containing biocide: weight loss after 20 weeks.

Zinc Omadine [ZO]: the “Actual % Weight Loss” value was 4.011% and 3.557% and 3.318% and 2.179%.
Next, `CCCCCCCCn1sccc1=O` [OIT, N-n-octyl isothiazolin-3-one]: 3.47% and 4.516% and 4.992% and 5.465%.
